Reference: US8293886B2, “Sensizitation of cancer cells to therapy using sina targeting genes from the 1P and 19Q chromosomal regions” (Universite Joseph Fourier, priority 2006, dated 2012)

Experiments:
Assay type in all cases: cell-based, human
ERCC1 mRNA = experiment: DNA repair gene expression by qRT-PCR with cisplatin, ERCC1; conditions: for ERCC1 Induced Qty: in a 25 ng total RNA extract
Method: (§1) RNAs were extracted on silica column (Nucleospin< >, MACHEREY-NAGEL). RNAs were reverse transcribed using the M-MLV reverse transcriptase RNase H minus enzyme (Promega) and oligodT as a primer, at 40 deg. C. during 1.5 hours. After reverse transcription, cDNAs were purified (Mini Elute, PCR Purification Kit< >, QIAGEN) and assayed by quantitative PCR using the HotStar Reaction mix (ROCHE), using a pair of primers specific for the candidate gene and the reference gene […] (Table III). Measurements were carried out on a Light Cycler thermo-cycler (ROCHE).
(§2) Measures were performed twice from each cell sample, and results were expressed as the mean of at least three independent samples (originating from independent in vitro experiments).
(§3) Expression of the 4 DNA-repair genes was studied by qRT-PCR in the 6 cell lines, with (induced level) or without cisplatin (basal level) to analyse the hypothesis that differences in expression could account for differences in siRNA responses. For each individual mRNA, the relative gene expression levels were roughly similar in all cell lines in absence of drug (Table VII).

ERCC2 mRNA = experiment: DNA repair gene expression by qRT-PCR with cisplatin, ERCC2; conditions: for ERCC2 Induced Qty: in a 25 ng total RNA extract
Method: as §1, §2, §3

MUTYH mRNA = experiment: DNA repair gene expression by qRT-PCR with cisplatin, MUTYH; conditions: for MUTYH Induced Qty: in a 25 ng total RNA extract
Method: as §1, §2, §3

PNKP mRNA = experiment: DNA repair gene expression by qRT-PCR with cisplatin, PNKP; conditions: for PNKP Induced Qty: in a 25 ng total RNA extract
Method: as §1, §2, §3

N.N.[Cl][Pt][Cl] [cisplatin, cis-diaminedichloroplatinum]
ERCC1 Induced % of basal level (ERCC1 mRNA; CCF, with cisplatin): 148% | ERCC1 Induced Qty (ERCC1 mRNA; CCF, with cisplatin): 12 zeptomol | ERCC1 Induced % of basal level (ERCC1 mRNA; GHD, with cisplatin): 104% | ERCC1 Induced Qty (ERCC1 mRNA; GHD, with cisplatin): 35 zeptomol | ERCC1 Induced % of basal level (ERCC1 mRNA; LN229, with cisplatin): 233% | ERCC1 Induced Qty (ERCC1 mRNA; LN229, with cisplatin): 78 zeptomol | ERCC1 Induced % of basal level (ERCC1 mRNA; U87, with cisplatin): 99% | ERCC1 Induced Qty (ERCC1 mRNA; U87, with cisplatin): 25 zeptomol | ERCC1 Induced % of basal level (ERCC1 mRNA; U138, with cisplatin): 242% | ERCC1 Induced Qty (ERCC1 mRNA; U138, with cisplatin): 97 zeptomol | ERCC1 Induced % of basal level (ERCC1 mRNA; U373, with cisplatin): 110% | ERCC1 Induced Qty (ERCC1 mRNA; U373, with cisplatin): 12 zeptomol | ERCC2 Induced % of basal level (ERCC2 mRNA; CCF, with cisplatin): 196% | ERCC2 Induced Qty (ERCC2 mRNA; CCF, with cisplatin): 3 zeptomol | ERCC2 Induced % of basal level (ERCC2 mRNA; GHD, with cisplatin): 163% | ERCC2 Induced Qty (ERCC2 mRNA; GHD, with cisplatin): 17 zeptomol | ERCC2 Induced % of basal level (ERCC2 mRNA; LN229, with cisplatin): 268% | ERCC2 Induced Qty (ERCC2 mRNA; LN229, with cisplatin): 11 zeptomol | ERCC2 Induced % of basal level (ERCC2 mRNA; U87, with cisplatin): 96% | ERCC2 Induced Qty (ERCC2 mRNA; U87, with cisplatin): 5 zeptomol | ERCC2 Induced % of basal level (ERCC2 mRNA; U138, with cisplatin): 312% | ERCC2 Induced Qty (ERCC2 mRNA; U138, with cisplatin): 66 zeptomol | ERCC2 Induced % of basal level (ERCC2 mRNA; U373, with cisplatin): 122% | ERCC2 Induced Qty (ERCC2 mRNA; U373, with cisplatin): 17 zeptomol | MUTYH Induced % of basal level (MUTYH mRNA; CCF, with cisplatin): 257% | MUTYH Induced Qty (MUTYH mRNA; CCF, with cisplatin): 117 zeptomol | MUTYH Induced % of basal level (MUTYH mRNA; GHD, with cisplatin): 105% | MUTYH Induced Qty (MUTYH mRNA; GHD, with cisplatin): 114 zeptomol | MUTYH Induced % of basal level (MUTYH mRNA; LN229, with cisplatin): 320% | MUTYH Induced Qty (MUTYH mRNA; LN229, with cisplatin): 439 zeptomol | MUTYH Induced % of basal level (MUTYH mRNA; U87, with cisplatin): 110% | MUTYH Induced Qty (MUTYH mRNA; U87, with cisplatin): 101 zeptomol | MUTYH Induced % of basal level (MUTYH mRNA; U138, with cisplatin): 254% | MUTYH Induced Qty (MUTYH mRNA; U138, with cisplatin): 469 zeptomol | MUTYH Induced % of basal level (MUTYH mRNA; U373, with cisplatin): 278% | MUTYH Induced Qty (MUTYH mRNA; U373, with cisplatin): 135 zeptomol | PNKP Induced % of basal level (PNKP mRNA; CCF, with cisplatin): 171% | PNKP Induced Qty (PNKP mRNA; CCF, with cisplatin): 130 zeptomol | PNKP Induced % of basal level (PNKP mRNA; GHD, with cisplatin): 88% | PNKP Induced Qty (PNKP mRNA; GHD, with cisplatin): 83 zeptomol | PNKP Induced % of basal level (PNKP mRNA; LN229, with cisplatin): 206% | PNKP Induced Qty (PNKP mRNA; LN229, with cisplatin): 283 zeptomol | PNKP Induced % of basal level (PNKP mRNA; U87, with cisplatin): 88% | PNKP Induced Qty (PNKP mRNA; U87, with cisplatin): 196 zeptomol | PNKP Induced % of basal level (PNKP mRNA; U138, with cisplatin): 218% | PNKP Induced Qty (PNKP mRNA; U138, with cisplatin): 1198 zeptomol | PNKP Induced % of basal level (PNKP mRNA; U373, with cisplatin): 130% | PNKP Induced Qty (PNKP mRNA; U373, with cisplatin): 149 zeptomol
